Assay results reported in patent publication US20260183411A1, “TARGETING SORTILIN” (priority 2024, published 2026).
Where two headings read alike, the source gives them in different places. One block for each compound: values may come before it. Where a SMILES comes first, the peptide text is derived from it. [ ]: non-standard residue; d: D form. The star is where a group is joined. Dolaproine = CO[C@@H]([C@@H]1CCCN1)[C@@H](C)C(=O)O; Dil = CC[C@H](C)[C@H](NC)[C@@H](CC(=O)O)OC; X1 = C[C@@H](N*)[C@@H](O)c1ccccc1; NMeV = CN[C@H](C(=O)O)C(C)C

How the values were obtained:
[1] = Murine serum stability assay; format: in vitro ADME, mouse; settings: read-out: Murine serum stability assay, T1/2
Description: Serum was drawn from male CD-1 mice by Pharmidex. Lyophilized peptides were solubilized in DMSO and then further diluted into male mouse (CD-1) serum at 37° C. in duplicates. The reaction was incubated at 37° C. and samples extracted at 6 time points: 0, 0.16, 0.5, 1, 3, and 6 hrs. Acetonitrile (ACN) with an internal standard (tolbutamide) was added to stop the incubation. Samples were centrifuged, and the supernatant was analyzed by HPLC-MS/MS for the parent compound.

MDA-MB-231 xenograft = assay: MDA-MB-231 murine xenograft efficacy model; format: in vivo, mouse
Description: Murine xenograft experiments were conducted at WuXi AppTec and/or Charles River Laboratories and the care and use of animals was conducted in accordance with the regulations of the Association for Assessment and Accreditation of Laboratory Animal Care (AAALAC). MDA-MB-231 tumor cells (ATCC, Manassas, VA, cat #HTB-26) were grown and maintained in L15 medium supplemented with 10% heat inactivated fetal bovine serum, 1% Antibiotic-Antimycotic, and L-glutamine (2 mM) at 37° C. in an atmosphere in 5% CO2, 95% air. BALB/c Nude, female, 6-8 weeks, weighing approximately 18-22 g were purchased from Vital River Laboratory Animal Technology Co., LTD. Mice were inoculated subcutaneously at the right flank with MDA-MB-231 tumor cells (e.g., triple negative breast cancer cells) (10×10^6) in 0.2 mL of PBS with Matrigel (1:1) for tumor development. Animals were randomized and treatment was started when the average tumor volume reached approximately 150-200 mm^3 for the efficacy study. Dosing volume was adjusted based on body weight and was administered at 10 mL/Kg. […] Free MMAE payload was also tested, and similarly dissolved in 25 mM Histidine 10% sucrose pH 7 and one or more of the following doses, 0.6, 0.06 mg/kg, were administered to the mice i.v. at a QW×4 schedule. Tumor sizes were measured twice weekly in two dimensions using a caliper, and the volume in mm^3 calculated using the formula: V=0.5 a×b^2, where a and b are the long and short diameters of the tumor, respectively. TGI was calculated for each group using the formula: TGI (%)=[1−(Ti−T0)/(Vi−V0)]×100; where Ti is the average tumor volume of a treatment group on a given day, TO is the average tumor volume of the treatment group on the first day of treatment, Vi is the average tumor volume of the vehicle control group on the same day with Ti, and V0 is the average tumor volume of the vehicle group on the first day of treatment.
To characterize the effects of the MMAE payload alone, we included free MMAE at molar equivalency to PDCs, and tested at 0.6 and 0.06 mg/kg, as separate arms.
To characterize the effects of the MMAE payload alone, we included free MMAE at molar equivalency to PDCs, and tested at 0.6 mg/kg.

[2] = male, CD-1, mouse, mouse serum, linear peptides, Table 11
[3] = mouse, serum, linear peptides, Table 11
[4] = male, CD-1, mouse, mouse serum, cyclic peptides, Table 12
[5] = mouse, serum, cyclic peptides, Table 12

- half-life [1, 2]: 12.1 min
SMILES: CC(C)CC[C@H](NC(=O)[C@H](CCC(N)=O)NC(=O)[C@H](CCCNC(=N)N)NC(=O)[C@H](CC(C)C)NC(=O)[C@H](C)NC(=O)[C@@H]1CCCN1C(=O)[C@H](CC(=O)O)NC(=O)[C@H](CCCNC(=N)N)NC(=O)[C@H](CC(C)C)NC(=O)[C@@H]1CCCN1C(=O)[C@H](C)NC(=O)[C@H](CC(=O)O)NC(=O)[C@H](Cc1c[nH]c2ccccc12)NC(=O)[C@H](CCCNC(=N)N)NC(=O)[C@@H]1CCCN1C(=O)[C@H](C)N)C(=O)N[C@@H](CC(C)(C)C)C(=O)O [Arb-SAR-P17]

- half-life [1, 3]: 9.95 min
SMILES: CC(C)C[C@H](NC(=O)[C@H](C)NC(=O)[C@@H]1CCCN1C(=O)[C@H](CC(=O)O)NC(=O)[C@H](CCCNC(=N)N)NC(=O)[C@H](CC(C)C)NC(=O)[C@@H]1CCCN1C(=O)[C@H](C)NC(=O)[C@H](CC(=O)O)NC(=O)[C@H](Cc1c[nH]c2ccccc12)NC(=O)[C@H](CCCNC(=N)N)NC(=O)[C@@H]1CCCN1C(=O)[C@H](C)N)C(=O)N[C@@H](CCCNC(=N)N)C(=O)N[C@@H](CCC(N)=O)C(=O)N[C@@H](CC(C)(C)C)C(=O)N[C@@H](CC(C)(C)C)C(=O)O [Arb-SAR-P22]

- half-life [1, 2]: 10.1 min
SMILES: CC(C)C[C@H](NC(=O)[C@H](C)NC(=O)[C@@H]1CCCN1C(=O)[C@H](CC(=O)O)NC(=O)[C@H](CCCNC(=N)N)NC(=O)[C@H](CC(C)C)NC(=O)[C@@H]1CCCN1C(=O)[C@H](C)NC(=O)[C@H](CC(=O)O)NC(=O)[C@H](Cc1c[nH]c2ccccc12)NC(=O)[C@H](CCCNC(=N)N)NC(=O)[C@@H]1CCCN1C(=O)[C@H](C)N)C(=O)N[C@@H](CCCNC(=N)N)C(=O)N[C@@H](CCC(N)=O)C(=O)N[C@@H](CC1CCC1)C(=O)N[C@@H](CC(C)(C)C)C(=O)O [Arb-SAR-P24]

- half-life [1, 3]: 11.5 min
SMILES: CC(C)CC[C@H](NC(=O)[C@H](CCC(N)=O)NC(=O)[C@H](CCCNC(=N)N)NC(=O)[C@H](CC(C)C)NC(=O)[C@H](C)NC(=O)[C@@H]1CCCN1C(=O)[C@H](CC(=O)O)NC(=O)[C@H](CCCNC(=N)N)NC(=O)[C@H](CC(C)C)NC(=O)[C@@H]1CCCN1C(=O)[C@H](C)NC(=O)[C@H](CC(=O)O)NC(=O)[C@H](Cc1c[nH]c2ccccc12)NC(=O)[C@H](CCCNC(=N)N)NC(=O)[C@@H]1CCCN1C(=O)[C@H](C)N)C(=O)N[C@@H](CC1CCC1)C(=O)O [Arb-SAR-Q09]

- half-life [1, 5]: 58.3 min
SMILES: CC(=O)N[C@@H](Cc1c[nH]cn1)C(=O)N[C@@H](CC(N)=O)C(=O)N[C@@H](Cc1ccccc1)C(=O)N[C@@H](Cc1ccc(O)cc1)C(=O)N[C@H]1CSSC[C@@H](C(=O)N[C@@H](CCC(N)=O)C(=O)N[C@@H](CCCNC(=N)N)C(=O)N[C@@H](CCC(N)=O)C(=O)N[C@H](C(=O)N[C@@H](CC(C)(C)C)C(=O)O)C(C)(C)C)NC(=O)[C@H](Cc2c[nH]cn2)NC(=O)[C@H](CCCCN)NC(=O)[C@H](CCCNC(=N)N)NC1=O [Arb_cyclic_C22]

Further lines, the compound ahead of its results:

SMILES: CC(C)C[C@H](NC(=O)[C@H](C)NC(=O)[C@@H]1CCCN1C(=O)[C@H](CC(=O)O)NC(=O)[C@H](CCCNC(=N)N)NC(=O)[C@H](CC(C)C)NC(=O)[C@@H]1CCCN1C(=O)[C@H](C)NC(=O)[C@H](CC(=O)O)NC(=O)[C@H](Cc1c[nH]c2ccccc12)NC(=O)[C@H](CCCNC(=N)N)NC(=O)[C@@H]1CCCN1C(=O)[C@H](C)N)C(=O)N[C@@H](CCCNC(=N)N)C(=O)N[C@@H](CCC(N)=O)C(=O)N[C@H](C(=O)N[C@@H](CC1CCC1)C(=O)O)C(C)(C)C [Arb-SAR-Q15]
- half-life [1, 2]: 16.9 min

SMILES: CCCC[C@@H]1NC(=O)[C@@H](NC(=O)[C@H](CCC(N)=O)NC(=O)[C@H](C)NC(C)=O)CSSC[C@@H](C(=O)N[C@@H](CCCNC(=N)N)C(=O)N[C@@H](CCC(N)=O)C(=O)N[C@H](C(=O)N[C@@H](CC(C)(C)C)C(=O)O)C(C)(C)C)NC(=O)[C@H](C)NC(=O)[C@H](CCCNC(=N)N)NC(=O)[C@H](CC(N)=O)NC(=O)[C@H](CCCNC(=N)N)NC(=O)CNC1=O [Arb_cyclic_C5]
- half-life [1, 4]: 46.1 min

SMILES: CC(=O)N[C@@H](CCC(=O)O)C(=O)N[C@@H](Cc1c[nH]c2ccccc12)C(=O)N[C@H]1CSSC[C@@H](C(=O)N[C@@H](CCCNC(=N)N)C(=O)N[C@@H](CCC(N)=O)C(=O)N[C@H](C(=O)N[C@@H](CC(C)(C)C)C(=O)O)C(C)(C)C)NC(=O)[C@H]([C@@H](C)O)NC(=O)[C@@H]2CCCN2C(=O)[C@H](Cc2c[nH]cn2)NC(=O)[C@H](CC(N)=O)NC(=O)[C@H](Cc2c[nH]cn2)NC(=O)[C@H](CC(C)C)NC(=O)CNC1=O [Arb_cyclic_F3]
- half-life [1, 4]: 173 min

SMILES: CC(=O)N[C@@H](CCCNC(=N)N)C(=O)N[C@@H](CC(=O)O)C(=O)N[C@H]1CSSC[C@@H](C(=O)N[C@@H](CCCNC(=N)N)C(=O)N[C@@H](CCC(N)=O)C(=O)N[C@H](C(=O)N[C@@H](CC(C)(C)C)C(=O)O)C(C)(C)C)NC(=O)[C@@H]2CCCN2C(=O)[C@@H]2CCCN2C(=O)[C@H](C)NC(=O)[C@H](CCCNC(=N)N)NC(=O)[C@H](CC(C)C)NC(=O)[C@H](CO)NC(=O)[C@H](C)NC1=O [Arb_cyclic_G2]
- half-life [1, 4]: 30.8 min

SMILES: CCCC[C@H](NC(=O)[C@H](CCCNC(=N)N)NC(C)=O)C(=O)N[C@H]1CSSC[C@@H](C(=O)N[C@@H](CCCNC(=N)N)C(=O)N[C@@H](CCC(N)=O)C(=O)N[C@H](C(=O)N[C@@H](CC(C)(C)C)C(=O)O)C(C)(C)C)NC(=O)[C@H](C)NC(=O)[C@@H]2CCCN2C(=O)[C@H](CO)NC(=O)[C@H](CCCNC(=N)N)NC(=O)[C@H]([C@@H](C)CC)NC(=O)[C@@H]2CCCN2C(=O)CNC1=O [Arb_cyclic_G10]
- half-life [1, 5]: 11.2 min

SMILES: CCCC[C@@H]1NC(=O)[C@H](CCCNC(=N)N)NC(=O)[C@H](CCCNC(=N)N)NC(=O)[C@H]([C@@H](C)O)NC(=O)[C@H]([C@@H](C)O)NC(=O)[C@@H](NC(=O)[C@H](CO)NC(=O)[C@H](CCCNC(=N)N)NC(C)=O)CSSC[C@@H](C(=O)N[C@@H](CCCNC(=N)N)C(=O)N[C@@H](CCC(N)=O)C(=O)N[C@H](C(=O)N[C@@H](CC(C)(C)C)C(=O)O)C(C)(C)C)NC(=O)[C@H]([C@@H](C)O)NC(=O)[C@H](C)NC1=O [Arb_cyclic_G14, RSCTTRR(Nle)ATCRQ(B13)(F02)] (HELM PEPTIDE1{[ac].R.S.C.T.T.R.R.[Nle].A.T.C.R.Q.[CC(C)(C)[C@H](N[*:1])C(=O)[*:2]].[CC(C)(C)C[C@H](N[*:1])C(=O)O]}$PEPTIDE1,PEPTIDE1,4:R3-12:R3$$$V2.0)
- half-life [1, 5]: 50.3 min

SMILES: CCCC[C@@H]1NC(=O)[C@H](CCCNC(=N)N)NC(=O)[C@H](CCCNC(=N)N)NC(=O)[C@H](CC(N)=O)NC(=O)[C@H](CCC(=O)O)NC(=O)[C@@H](NC(=O)[C@H](Cc2c[nH]c3ccccc23)NC(=O)[C@H](CCCNC(=N)N)NC(C)=O)CSSC[C@@H](C(=O)N[C@@H](CCCNC(=N)N)C(=O)N[C@@H](CCC(N)=O)C(=O)N[C@H](C(=O)N[C@@H](CC(C)(C)C)C(=O)O)C(C)(C)C)NC(=O)[C@H]([C@@H](C)O)NC(=O)[C@H](Cc2ccccc2)NC1=O [Arb_cyclic_G23, RWCENRR(Nle)FTCRQ(B13)(F02)]
- half-life [1, 4]: 39.1 min

SMILES: CC[C@H](C)[C@@H]([C@@H](CC(=O)N1CCC[C@H]1[C@H](OC)[C@@H](C)C(=O)N[C@H](C)[C@@H](O)c1ccccc1)OC)N(C)C(=O)[C@@H](NC(=O)[C@@H](NC)C(C)C)C(C)C [Free MMAE, Monomethyl auristatin E, reference compound] (H-[NMeV]V[Dil][Dolaproine]-X1; N-terminus and C-terminus assumed)
- body weight variation (Example 6) (MDA-MB-231 xenograft; PDC at each dose, free MMAE at equivalency to 3 mg/kg PDC): body weight fluctuations corresponding to treatment times
- body weight loss (Example 8) (MDA-MB-231 xenograft; PDCs 3 mg/kg, free MMAE at molar equivalency (0.6 mg/kg)): body weight fluctuations corresponding to treatment times
